Earlier results in US20030008851A1, “Acne treatment including dual-package system” (priority 2001, published 2003).

Columns and labels:
[1] = not given; remark: listed apart in the source

SMILES | solubility in water (in words) (water) | solubility in alcohol (in words) [1] | pH of the solution produced (1 gram in about 460 ml of water at room temperature) | volume of water dissolving 1 gram (1 gram, water, room temperature) | solubility in water (water, room temperature) | volume of alcohol dissolving 1 gram ([1]; 1 gram)
O=C(OOC(=O)c1ccccc1)c1ccccc1 [Benzoyl peroxide] | sparingly soluble | sparingly soluble |  |  |  | 
O=C(O)c1ccccc1O [Salicylic acid] | sparingly soluble |  | 2.4 | about 460 ml | about 0.2 % by weight | about 2.7 ml
